Source: patent US8722013B2, “Use of R(+)-alpha-lipoic acid for cryptogenic neuropathy” (Encrypta GmbH, priority 2007, dated 2014)
Structures can show the parent of a compound that is named as a salt.

What was measured:
[1] = tested on: diabetic polyneuropathy; conditions: cited from earlier work
[2] = tested on: uremic neuropathy; conditions: cited from earlier work
[3] = tested on: cryptogenic neuropathy; test: Case reports: patients with cryptogenic neuropathy treated with R-LA; assay type: in vivo, human
Experimental: A patient with cryptogenic neuropathy was treated with an agent according to the present invention. For that purpose a daily oral dose of 50 mg of R-LA (s.d.) was given over a time period of 8 weeks in a customary multivitamin presentation form. The disease is presented by a loss of sensory perception in the feet and a severe impairment of perspiration.
A patient with cryptogenic neuropathy was treated with an agent according to the present invention. For that purpose a daily oral dose of 50 mg of R-LA (s.d.) was given over a time period of 12 weeks.
A patient with cryptogenic neuropathy was treated with an agent according to the present invention. For that purpose 50 mg of R-LA (s.d.) in an oral multivitamin preparation together with γ-linolenic acid was given. The administration was at first 2 times a day for 6 weeks and then 1 time a day. The lost sensation in the tips of the fingers and toes (Semmes Weinstein monofilament) recovered after 4 weeks.
A patient with cryptogenic neuropathy was treated with an agent according to the present invention. For that purpose a daily oral dose of 100 mg of R-LA as Na salt was given over a time period of 8 weeks. The incontinence and also the control over the bladder were improved after 3 weeks.
A patient with cryptogenic neuropathy was treated with an agent according to the present invention. For that purpose at first a dose of 300 mg of R-LA (Na salt) was given 1 time a day over a time period of 2 weeks and then a dose of 100 mg was given 1 time a day over a time period of 6 weeks. Due to inconsequent taking of the dose on average the agent was only administered every second day. The dryness of the eyes has not changed during the first 3 weeks, but after 4 weeks the use of eye drops was reduced.
A patient with cryptogenic neuropathy was treated with an agent according to the present invention. For that purpose at first a daily oral dose of 100 mg of R-LA was given over a time period of one week and then a reduction to a dose of 50 mg for 6 weeks with continuous co-medication of gabapentin followed.
A patient with cryptogenic neuropathy was treated with an agent according to the present invention. For that purpose at first a daily oral dose of 100 mg of R-LA was given over a time period of two weeks. Then a reduction to a dose of 50 mg followed which was continued over 3 weeks. Subsequently the treatment was continued with the administration of 25 mg over further 3 weeks. […] Sharp pain which occurred occasionally was unchanged.
A patient with cryptogenic neuropathy was treated with an agent according to the present invention. For that purpose at first a daily oral dose of 100 mg of R-LA was given over a time period of four weeks. Then an anti-oxidative multivitamin preparation together with 50 mg of R-LA was given over 4 weeks.
A patient with cryptogenic neuropathy was treated with an agent according to the present invention. For that purpose at first a daily oral dose of 50 mg of R-LA was given over a time period of six weeks. Then an anti-oxidative multivitamin preparation without R-LA was given orally over 4 weeks. The patient suffered from numbness and the loss of sensory perception in the lower limbs. Due to a possible immunologic background ibuprofen was given as a long-term medication. […] The heart pains during stair climbing disappeared.
A patient with cryptogenic neuropathy was treated with an agent according to the present invention. For that purpose a daily dose of 300 mg of R-LA was given over a time period of four weeks together with a continued administration of a vitamin B-combination medication. […] Stomach pain and feeling of abdominal fullness were improved at the end of that period.
A patient with cryptogenic neuropathy was treated with an agent according to the present invention. For that purpose a daily oral dose of 400 mg of R-LA (K salt) was given over a time period of one week. […] 3 months later a formulation of 100 mg (Na salt) was given. […]

[4] = tested on: cryptogenic neuropathy; conditions: in vivo; cited from earlier work
[5] = Example 11, 400 mg daily oral (K salt) over one week
[6] = Example 1, 50 mg daily oral (s.d.) in multivitamin presentation form, after 8 weeks
[7] = Example 9, 50 mg daily oral over six weeks, ibuprofen long-term medication

In the case of O=C(O)CCCCC1CCSS1 (racemic) [rac-LA, 5-(1,2-dithiolan-3-yl)valeric acid], the “efficacy in controlled clinical trials” value ([1]; human, in vivo) is listed as “negative”, the “efficacy in first short-time pilot study (ALADIN Study)” value ([1]; i.v. treatment, 3-week multicentre randomized controlled trial) is listed as “verified the historic impressions of the efficacy” and the neuropathic deficits ([1]; oral long-term therapy) is listed as “appeared to deteriorate”. For the same molecule, the “efficacy in pivotal placebo-controlled double-blind multicentre trials (ALADIN II, ALADIN III)” value ([1]; short-term use (i.v.) or long-term use (p.o.)) was “could not be reproduced” and the “result of first clinical trial” value [2] was “negative results”.

In the case of O=C(O)CCCC[C@@H]1CCSS1 [R-LA (K salt)], the “hyperhidrosis at the face” value [3, 5] is reported as “not disappeared” and the “sensory perception in the lower limbs” value [3, 5] is reported as “improved from severe to moderate”.

For O=C(O)CCCC[C@@H]1CCSS1 [R-LA (Na salt)], the “incontinence and control over the bladder” value ([3]; Example 4, 100 mg daily oral as Na salt, after 3 weeks) was “improved”, the chronic obstipation ([3]; Example 4, 100 mg daily oral as Na salt, after 5 weeks) was “no longer a problem” and the stool frequency ([3]; Example 4, 100 mg daily oral as Na salt, after 5 weeks, 2 to 3 times a week before) was 5 times a week. The “dryness of the eyes” value ([3]; Example 5, 300 mg 1 time a day for 2 weeks, then 100 mg for 6 weeks (on average taken every second day), first 3 weeks) was “not changed”, the “feeling of burning in the feet” value ([3]; Example 5, 300 mg for 2 weeks, then 100 mg, after 3 weeks) was “reduced after 3 weeks (from severe to moderate)” and the “use of eye drops” value ([3]; Example 5, 300 mg for 2 weeks, then 100 mg, after 4 weeks) was “reduced”. For the same molecule, the “feeling of burning in the feet” value ([3]; Example 5, during the weeks following week 3) was “unchanged”.

In the case of O=C(O)CCCC[C@@H]1CCSS1 [R-LA, (R)-5-(1,2-dithiolan-3-yl)valeric acid], the perspiration [3, 6] is reported as “moderately improved”, the “sensory perception in the feet” value [3, 6] is reported as “moderately improved” and the “feeling of burning and tingling in the feet and hands” value ([3]; Example 2, 50 mg daily oral (s.d.) over 12 weeks) is reported as “improved moderately”. The “symptoms after the termination of the treatment” value ([3]; Example 2, after 12 weeks of 50 mg daily oral) was “became worse again”, the “lost sensation in the tips of the fingers and toes (Semmes Weinstein monofilament)” value ([3]; Example 3, 50 mg in oral multivitamin preparation with γ-linolenic acid, 2 times a day, after 4 weeks) was “recovered” and the “function improvement on halving of the dose” value ([3]; Example 3, 2 times a day for 6 weeks, then 1 time a day) was “not influenced”. The “neurological pain in the feet” value ([3]; Example 6, 100 mg daily oral for one week, then 50 mg for 6 weeks, co-medication of gabapentin) was “unchanged”, the “perception of pain stimulus with a needle at the feet” value ([3]; Example 6, 100 mg for one week, then 50 mg, gabapentin co-medication, after 3 weeks, not perceived at first) was “perceived moderately” and the “feeling of burning in the feet” value ([3]; Example 7, 100 mg daily oral for two weeks, then 50 mg, after 3 weeks) was “improved from severe to moderate”. For the same molecule, the “sharp pain which occurred occasionally” value ([3]; Example 7, 100 mg for 2 weeks, 50 mg for 3 weeks, 25 mg for 3 weeks) was “unchanged”, the “feeling of burning in the feet” value ([3]; Example 7, 100 mg for two weeks, then 50 mg for 3 weeks, after 5 weeks) was “disappeared completely” and the “feeling of burning in the feet” value ([3]; Example 8, 100 mg daily oral, after 2 weeks) was “improved from severe to moderate”. The “feeling of burning in the feet” value ([3]; Example 8, 100 mg for four weeks, then anti-oxidative multivitamin preparation with 50 mg, after 6 weeks) was “became worse again”, the “heart pains during stair climbing” value [3, 7] was “disappeared” and the numbness [3, 7] was “unchanged”. The “sensory perception in the lower limbs” value ([3]; Example 9, 50 mg daily oral, ibuprofen long-term medication, after 3 weeks, then stable) was “improved from severe to moderate”, the “sensory perception after termination of R-LA” value ([3]; Example 9, 3 weeks after the termination of the administration) was “became worse again” and the “perception of pain stimulus at the feet by means of a sharp needle” value ([3]; Example 10, 300 mg daily with vitamin B-combination medication, after 2 weeks) was “perceived again”. For the same molecule, the “stomach pain and feeling of abdominal fullness” value ([3]; Example 10, 300 mg daily with vitamin B-combination medication, at the end of four weeks) was “improved”, the “dryness at the feet” value ([3]; Example 12, 100 mg twice a day, after 2 weeks) was “improved” and the “dryness at the hands” value ([3]; Example 12, 100 mg twice a day, after 3 weeks) was “improved”.

In the case of C[C@]12CCC(=O)C=C1CC[C@@H]1[C@@H]2C(=O)C[C@@]2(C)[C@H]1CC[C@]2(O)C(=O)CO [cortisone], the “outcome of therapy of cryptogenic neuropathy” value [4] is listed as “unsuccessful”.
